Among the test systems are HCT-15 colon; IGROV1 ovarian; LOX IMVI melanoma; MOLT-4 leukemia; NCI-H226 lung; OVCAR-4 ovarian; SK-MEL-2 melanoma; SN12C renal; SW-620 colon; UACC-62 melanoma.
Holding throughout (test): growth of human tumour cells (NCI), 48 h

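How tested: cells in 96-well plates exposed to compound for 48 hours at five concentrations. GI50 marks 50% less growth. TGI marks complete inhibition of growth.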

This passage reports GI50 and TGI results from PubChem BioAssay (NCI).

For the molecule `C[C@@]12CCC[C@@](C)(C(=O)O)C1CC[C@]13C=C(CO)[C@](O)(CCC12)C3` (stereo not given in full), the GI50 in the experiment on HCT-15 colon, in the experiment with IGROV1 ovarian, in the experiment on LOX IMVI melanoma, with MOLT-4 leukemia, in the experiment with NCI-H226 lung and in the experiment on OVCAR-4 ovarian was above 100 µM throughout. Moreover, the GI50 with SK-MEL-2 melanoma, in the experiment with SN12C renal, in the experiment on SW-620 colon and in the experiment on UACC-62 melanoma was above 100 µM in each case. In addition, the TGI in the experiment with HCT-15 colon, in the experiment with IGROV1 ovarian, in the experiment on LOX IMVI melanoma, in the experiment with MOLT-4 leukemia, in the experiment with NCI-H226 lung and in the experiment on OVCAR-4 ovarian was above 100 µM each time. Moreover, the TGI in the experiment with SK-MEL-2 melanoma, with SN12C renal, with SW-620 colon and in the experiment on UACC-62 melanoma was above 100 µM each time.

Consider `Nc1ccccc1S(=O)c1ccccc1` (stereo not given), for which the TGI in the experiment with HCT-15 colon, in the experiment with IGROV1 ovarian, with LOX IMVI melanoma, with MOLT-4 leukemia, in the experiment on NCI-H226 lung and in the experiment with OVCAR-4 ovarian was above 100 µM each time. For the same molecule, the TGI with SK-MEL-2 melanoma, with SN12C renal, in the experiment on SW-620 colon and with UACC-62 melanoma was above 100 µM throughout.

In the case of `NC(Cc1cc(Br)c(O)c(Br)c1)C(=O)O` (stereo not given), the TGI in the experiment on HCT-15 colon, in the experiment with IGROV1 ovarian, with LOX IMVI melanoma, with MOLT-4 leukemia, in the experiment with NCI-H226 lung and with OVCAR-4 ovarian was above 100 µM each time. The TGI in the experiment with SK-MEL-2 melanoma, in the experiment on SN12C renal, in the experiment with SW-620 colon and with UACC-62 melanoma was above 100 µM throughout.

`S=C(Nc1ccc(-c2nc3ccccc3s2)cc1)Nc1ccccn1`: the GI50 in the experiment with HCT-15 colon was 27.4 µM; in the experiment with IGROV1 ovarian it was 29.8 µM; with LOX IMVI melanoma it was 18.2 µM; with MOLT-4 leukemia it was 18.8 µM; in the experiment with NCI-H226 lung, 26.4 µM; in the experiment on OVCAR-4 ovarian it was 37 µM. In addition, the GI50 in the experiment on SK-MEL-2 melanoma is 22.7 µM; with SN12C renal, 22.9 µM; in the experiment with SW-620 colon, 40.1 µM; in the experiment with UACC-62 melanoma, 21.4 µM. For the same molecule, the TGI in the experiment on HCT-15 colon is above 71.6 µM; with IGROV1 ovarian, above 78.1 µM; with LOX IMVI melanoma it was 39.4 µM; in the experiment with MOLT-4 leukemia it was above 86.7 µM; in the experiment with NCI-H226 lung, above 76.2 µM; in the experiment with OVCAR-4 ovarian, above 100 µM. The TGI in the experiment on SK-MEL-2 melanoma was 50.3 µM; in the experiment with SN12C renal it was 63.6 µM; with SW-620 colon, above 100 µM; with UACC-62 melanoma, 57.3 µM.

For `CCCCC(SC(=S)N(CC)CC)C(=O)Nc1nc(CC(=O)OCC)cs1` (stereo not given), the GI50 is 48.5 µM with HCT-15 colon; 37.4 µM with IGROV1 ovarian; 29.6 µM in the experiment on LOX IMVI melanoma; 20.2 µM with MOLT-4 leukemia; 58 µM in the experiment on NCI-H226 lung; 30.6 µM in the experiment with OVCAR-4 ovarian. Moreover, the GI50 in the experiment with SK-MEL-2 melanoma was 29.2 µM; in the experiment with SN12C renal, 77.8 µM; with SW-620 colon, 38 µM; in the experiment on UACC-62 melanoma, 29.8 µM. In addition, the TGI with HCT-15 colon, with IGROV1 ovarian, with LOX IMVI melanoma, with MOLT-4 leukemia, with NCI-H226 lung and with OVCAR-4 ovarian was above 100 µM throughout. Besides, the TGI with SK-MEL-2 melanoma was 86 µM; with SN12C renal, above 100 µM; with SW-620 colon, above 100 µM; with UACC-62 melanoma, above 100 µM.
